Experimental data taken from patent US20260337153A1, “IONIZABLE AMINE LIPIDS” (Intellia Therapeutics, Inc., priority 2023, published 2026).

Tested on: rat TTR gene
Assay: In vivo editing of TTR in rat liver after LNP delivery (NGS, % editing)
Parameters: species or system rat (Sprague-Dawley)
Description: LNPs were prepared using various amine lipids in a 4-component lipid system consisting of an ionizable lipid (e.g., an amine lipid), DSPC, cholesterol and a PEG lipid (e.g., PEG2K-DMG, C13 Ether, C14 Ether). In assays for percent liver editing in rats, Cas9 mRNA and chemically modified sgRNA targeting a rat sequence were formulated in LNPs, at either a 1:1 w/w ratio or a 1:2 w/w sgRNA:Cas9 mRNA ratio.
The lipid components were dissolved in 100% ethanol with the lipid component molar ratios described below. The chemically modified sgRNA and Cas9 mRNA were combined and dissolved in 25 mM citrate, 100 mM NaCl, pH 5.0, resulting in a concentration of total RNA cargo of approximately 0.45 mg/mL. The LNPs were formulated with an N:P ratio of about 6, with the ratio of chemically modified sgRNA:Cas9 mRNA at either a 1:1 or 1:2 w/w ratio as described below.
The LNPs were formed by an impinging jet mixing of the lipid in ethanol with two volumes of RNA solution and one volume of water. First, the lipid in ethanol is mixed through a mixing cross with the two volumes of RNA solution. Then, a fourth stream of water is mixed with the outlet stream of the cross through an inline tee. (See, e.g., WO2016010840, FIG. 2). The LNPs were held for 1 hour at room temperature, and further diluted with water (approximately 1:1 v/v). Diluted LNPs were buffer exchanged into 50 mM Tris, 45 mM NaCl, 5% (w/v) sucrose, pH 7.5 (TSS) and concentrated as needed by methods known in the art. The resulting mixture was then filtered using a 0.2 μm sterile filter. The final LNP was stored at 4° C. or −80° C. until further use.
Sprague-Dawley female rats, ranging from 6-10 weeks of age were used in each study. Animals were weighed and dosed based on individual body weight measured the morning of dosing. LNPs were dosed via the lateral tail vein in a volume of 2 mL per kilogram of animal body weight. The animals were periodically observed for adverse effects for at least 24 hours post dose.
For studies measuring in vivo editing in liver, Sprague-Dawley female rats were dosed at 0.1 mpk or 0.03 mpk, unless otherwise noted. Animals were euthanized at 6 or 7 days by carbon dioxide asphyxiation and a heart clip or by ex sanguination via cardiac puncture under isoflourane anesthesia. Blood was collected into serum separator tubes. Liver tissue was collected. Genomic DNA was isolated from the liver tissue for editing measurement by Next-Generation Sequencing (NGS).
In brief, to quantitatively determine the efficiency of editing at the target location in the genome, genomic DNA was isolated and deep sequencing was utilized to identify the presence of insertions and deletions introduced by gene editing.
PCR primers were designed around the target site (e.g., TTR), and the genomic area of interest was amplified. Additional PCR was performed according to the manufacturer's protocols (Illumina) to add the necessary chemistry for sequencing. The amplicons were sequenced on an Illumina MiSeq instrument. The reads were aligned to the […] after eliminating those having low quality scores. The resulting files containing the reads were mapped to the reference genome (BAM files), where reads that overlapped the target region of interest were selected and the number of wild type reads versus the number of reads which contain an insertion, substitution, or deletion was calculated.
The editing percentage (e.g., the “indel efficiency” or “percent indels” or “% editing” or “% indel”) can be defined as the total number of sequence reads with insertions or deletions over the total number of sequence reads, including wild type.
In vivo editing efficiency for materials delivered with formulations including various amine lipid (or ionizable lipid) compounds in Experiments 1 through 14 as described in Tables 3 and 4 was assessed. Editing was measured using G000534 (SEQ ID NO: 5) which targets the rat TTR gene. […]

[1] = Experiment 3, 0.1 mpk, LNP with PEG2K-DMG
[2] = Experiment 2, 0.1 mpk, LNP with PEG2K-DMG
[3] = Experiment 14, 0.03 mpk, LNP with C13 Ether
[4] = Experiment 4, 0.1 mpk, LNP with PEG2K-DMG
[5] = Experiment 9, 0.1 mpk, LNP with PEG2K-DMG

## CCCCCCCCOC(CCC(=O)OCC(COC(=O)CCC(OCCCCCCCC)OCCCCCCCC)COC(=O)OCCCN(CC)CC)OCCCCCCCC [Compound 1, 2-((((3-(diethylamino)propoxy)carbonyl)oxy)methyl)propane-1,3-diyl bis(4,4-bis(octyloxy)butanoate)]
[1]
  Mean % editing: 52.4%

## CCCCCCCCC(CCCCCCCC)OC(=O)CCCC(=O)OCC(COC(=O)CCCC(=O)OC(CCCCCCCC)CCCCCCCC)COC(=O)OCCCN(CC)CC [Compound 2, O,O′-(2-((((3-(diethylamino)propoxy)carbonyl)oxy)methyl)propane-1,3-diyl) di(heptadecan-9-yl) diglutarate]
[2]
  Mean % editing: 59.8%
[1]
  Mean % editing: 38.3%
[3]
  Mean % editing: 21.2%

## CCCCCCCCC(CCCCCCCC)OC(=O)CCCCCC(=O)OCC(COC(=O)CCCCCC(=O)OC(CCCCCCCC)CCCCCCCC)COC(=O)OCCCN(CC)CC [Compound 3, O′1,O1-(2-((((3-(diethylamino)propoxy)carbonyl)oxy)methyl)propane-1,3-diyl) 7,7′-di(heptadecan-9-yl) di(heptanedioate)]
[2]
  Mean % editing: 53.0%

## CCCCC/C=C\C/C=C\CCCCCCCC(=O)OCC(COC(=O)CCCCCC(=O)OCC(CCCC)CCCCCC)COC(=O)OCCCN(CC)CC (stereo not shown) [Compound 4, 1-(2-butyloctyl) 7-(3-(((3-(diethylamino)propoxy)carbonyl)oxy)-2-((((9Z,12Z)-octadeca-9,12-dienoyl)oxy)methyl)propyl) heptanedioate]
[2]
  Mean % editing: 27.2%
[1]
  Mean % editing: 29.7%

## CCCCCCC(CCCC)COC(=O)CCCCCC(=O)OCC(COC(=O)CCCCCC(=O)OCC(CCCC)CCCCCC)COC(=O)OCCCN(CC)CC (stereo not shown) [Compound 5, 7,7′-bis(2-butyloctyl) O′1,O1-(2-((((3-(diethylamino)propoxy)carbonyl)oxy)methyl)propane-1,3-diyl) di(heptanedioate)]
[2]
  Mean % editing: 52.0%

## CCCCCCCCC(CCCCCCCC)OC(=O)CCCC(=O)OCC(COC(=O)CCCC(=O)OC(CCCCCCCC)CCCCCCCC)COC(=O)NCCN(CC)CC [Compound 6, O,O′-(2-((((2-(diethylamino)ethyl)carbamoyl)oxy)methyl)propane-1,3-diyl) di(heptadecan-9-yl) diglutarate]
Experiment 12, 0.04 mpk, LNP with PEG2K-DMG
  Mean % editing: 36.3%
Experiment 13, 0.03 mpk, LNP with PEG2K-DMG
  Mean % editing: 25.0%
[3]
  Mean % editing: 22.4%
NGS, dose 0.03 mpk, LNP with G000534 sgRNA and Cas9 mRNA 1:2 w/w, 3% C13 Ether (Compound 53: 3% PEG2K-DMG), N=5 (Compound 33: N=4)
  Mean % editing in rat liver: 30.4%
Table 6, 0.03 mpk, PEG lipid C13 Ether
  Mean % editing: 27.4%
Table 6, 0.03 mpk, PEG lipid C14 Ether
  Mean % editing: 18.9%
Table 6, 0.03 mpk, PEG lipid PEG2K-DMG
  Mean % editing: 26.8%
Table 8, 0.03 mpk, LNP with C13 Ether
  Mean % editing: 41.7%

## CCCCC/C=C\C/C=C\CCCCCCCC(=O)OCC(CCCCCCCCC(=O)OCC(CCCC)CCCCCC)COC(=O)OCCCN(CC)CC (stereo not shown) [Compound 7, 11-((2-butyloctyl)oxy)-2-((((3-(diethylamino)propoxy)carbonyl)oxy)methyl)-11-oxoundecyl (9Z,12Z)-octadeca-9,12-dienoate]
[1]
  Mean % editing: 30.0%

## CCCCCCCCC(CCCCCCCC)OC(=O)CCCCCCC(COC(=O)CCCC(=O)OC(CCCCCCCC)CCCCCCCC)COC(=O)OCCCN(CC)CC (stereo not shown) [Compound 8, 2-((((3-(diethylamino)propoxy)carbonyl)oxy)methyl)-9-(heptadecan-9-yloxy)-9-oxononyl heptadecan-9-yl glutarate]
[1]
  Mean % editing: 20.8%

## CCCCC/C=C\C/C=C\CCCCCCCC(=O)OCC(CCCCCCCCC(=O)OC(CCCCCCCC)CCCCCCCC)COC(=O)OCCCN(CC)CC (stereo not shown) [Compound 9, 2-((((3-(diethylamino)propoxy)carbonyl)oxy)methyl)-11-(heptadecan-9-yloxy)-11-oxoundecyl (9Z,12Z)-octadeca-9,12-dienoate]
[1]
  Mean % editing: 5.3%
[4]
  Mean % editing: 9.6%
[5]
  Mean % editing: 4.3%

## CCCCC/C=C\C/C=C\CCCCCCCC(=O)OCC(CCCCCCCCC(=O)OC(CCCCCCCC)CCCCCCCC)COC(=O)NCCN(CC)CC (stereo not shown) [Compound 10, 2-((((2-(diethylamino)ethyl)carbamoyl)oxy)methyl)-11-(heptadecan-9-yloxy)-11-oxoundecyl (9Z,12Z)-octadeca-9,12-dienoate]
[4]
  Mean % editing: 35.3%

## CCCCC/C=C\C/C=C\CCCCCCCC(=O)OCC(CCCCCCCCC(=O)OC(CCCCCCCC)CCCCCCCC)COC(=O)OCCCN(C)CC (stereo not shown) [Compound 11, 2-((((3-(ethyl(methyl)amino)propoxy)carbonyl)oxy)methyl)-11-(heptadecan-9-yloxy)-11-oxoundecyl (9Z,12Z)-octadeca-9,12-dienoate]
[4]
  Mean % editing: 14.0%

## CCCCC/C=C\C/C=C\CCCCCCCC(=O)OCC(CCCCC(=O)OC(CCCC)CCCC)COC(=O)NCCN(CC)CC (stereo not shown) [Compound 12, 2-((((2-(diethylamino)ethyl)carbamoyl)oxy)methyl)-7-(nonan-5-yloxy)-7-oxoheptyl (9Z,12Z)-octadeca-9,12-dienoate]
[4]
  Mean % editing: 11.6%

## CCCCC/C=C\C/C=C\CCCCCCCC(=O)OCC(CCCCC(=O)OC(CCCC)CCCC)COC(=O)OCCCN(C)CC (stereo not shown) [Compound 13, 2-((((3-(ethyl(methyl)amino)propoxy)carbonyl)oxy)methyl)-7-(nonan-5-yloxy)-7-oxoheptyl (9Z,12Z)-octadeca-9,12-dienoate]
[4]
  Mean % editing: 20.9%

## CCCCC/C=C\C/C=C\CCCCCCCC(=O)OCC(CCCCC(=O)OC(CCCC)CCCC)COC(=O)OCCCN(CC)CC (stereo not shown) [Compound 14, 2-((((3-(diethylamino)propoxy)carbonyl)oxy)methyl)-7-(nonan-5-yloxy)-7-oxoheptyl (9Z,12Z)-octadeca-9,12-dienoate]
[4]
  Mean % editing: 16.8%

## CCCCC/C=C\C/C=C\CCCCCCCC(=O)OCC(CCCCC(=O)OC(CCCCCCCC)CCCCCCCC)COC(=O)OCCCN(CC)CC (stereo not shown) [Compound 15, 2-((((3-(diethylamino)propoxy)carbonyl)oxy)methyl)-7-(heptadecan-9-yloxy)-7-oxoheptyl (9Z,12Z)-octadeca-9,12-dienoate]
[5]
  Mean % editing: 15.1%

## CCCCC/C=C\C/C=C\CCCCCCCC(=O)OCC(CCCCCCC(=O)OC(CCCCCCCC)CCCCCCCC)COC(=O)OCCCN(CC)CC (stereo not shown) [Compound 16, 2-((((3-(diethylamino)propoxy)carbonyl)oxy)methyl)-9-(heptadecan-9-yloxy)-9-oxononyl (9Z,12Z)-octadeca-9,12-dienoate]
[5]
  Mean % editing: 14.9%

## CCCCC/C=C\C/C=C\CCCCCCCC(=O)OCC(CCCCC(=O)OC(CCCCCC)CCCCCC)COC(=O)OCCCN(CC)CC (stereo not shown) [Compound 17, 2-((((3-(diethylamino)propoxy)carbonyl)oxy)methyl)-7-oxo-7-(tridecan-7-yloxy)heptyl (9Z,12Z)-octadeca-9,12-dienoate]
[5]
  Mean % editing: 35.8%

## CCCCC/C=C\C/C=C\CCCCCCCC(=O)OCC(CCCCCCC(=O)OC(CCCCCC)CCCCCC)COC(=O)OCCCN(CC)CC (stereo not shown) [Compound 18, 2-((((3-(diethylamino)propoxy)carbonyl)oxy)methyl)-9-oxo-9-(tridecan-7-yloxy)nonyl (9Z,12Z)-octadeca-9,12-dienoate]
[5]
  Mean % editing: 34.4%

## CCCCC/C=C\C/C=C\CCCCCCCC(=O)OCC(CCCCCCCCC(=O)OC(CCCCCC)CCCCCC)COC(=O)OCCCN(CC)CC (stereo not shown) [Compound 19, 2-((((3-(diethylamino)propoxy)carbonyl)oxy)methyl)-11-oxo-11-(tridecan-7-yloxy)undecyl (9Z,12Z)-octadeca-9,12-dienoate]
[5]
  Mean % editing: 14.4%
